Test [1] has as its target T1, βARR1 L129G (Rattus norvegicus, UniProt P29066, L129G).
T1 construct: βARR1 or βARR2 construct, with their C terminus truncated (at amino acid 393 or 394, respectively); GST (pGEX4T1) (N, cleaved yes); made in house; host or cells: E. coli BL21 (DE3) pLysS
Briefly: ITC binding to βARR1 mutant L129G. The following applies: 25 °C. As for the experimental part: (§1) The expression and purification of β-arrestins have been described previously[44],[62]–[64]. In brief, E. coli BL21 (DE3) pLysS cells (New England Biolabs: C2527I) carrying pGEX4T1-Rattus norvegicus βARR1 or βARR2 construct, with their C terminus truncated (at amino acid 393 or 394, respectively), were cultured in Terrific Broth (Teknova) medium at 37 °C. After OD600 reached 0.6–0.8, the cells were induced with 0.1 mM isopropyl-β-D-thiogalactopyranoside (IPTG) at 18 °C overnight. Bacteria were collected by centrifugation (4,000 rpm), and cell pellets were resuspended in lysis buffer (20 mM HEPES, pH 8, 150 mM NaCl, 10% glycerol, 1 mM EDTA, 0.2 mM dithiothreitol (DTT), 1 mM phenylmethylsulfonyl fluoride, and 1 mM benzamidine) at 4 °C for 1 h. […] Eluted fractions were analysed by SDS–PAGE, pooled, concentrated using 30 kDa MWCO Amicon Ultra-15 Centrifugal Filter devices, flash-frozen in liquid nitrogen, and stored in aliquots at −80 °C. […] Protein concentrations for each protein were determined by ultraviolet absorption at 280 nm and extinction coefficients estimated using the ExPASy ProtParam tool[67].
(§2) ITC measurements were performed on a MicroCal iTC200 system at 25 °C. […] Protein concentrations were determined by spectrophotometry at 280 nm, using extinction coefficients calculated from each protein sequence via the ProtParam program. […]

For test [2], the target named is T2, βARR1 P133A (Rattus norvegicus, UniProt P29066, P133A).
T2 construct: βARR1 or βARR2 construct, with their C terminus truncated (at amino acid 393 or 394, respectively); GST (pGEX4T1) (N, cleaved yes); made in house; host or cells: E. coli BL21 (DE3) pLysS
T2 sequence (P29066 1-393 P133A): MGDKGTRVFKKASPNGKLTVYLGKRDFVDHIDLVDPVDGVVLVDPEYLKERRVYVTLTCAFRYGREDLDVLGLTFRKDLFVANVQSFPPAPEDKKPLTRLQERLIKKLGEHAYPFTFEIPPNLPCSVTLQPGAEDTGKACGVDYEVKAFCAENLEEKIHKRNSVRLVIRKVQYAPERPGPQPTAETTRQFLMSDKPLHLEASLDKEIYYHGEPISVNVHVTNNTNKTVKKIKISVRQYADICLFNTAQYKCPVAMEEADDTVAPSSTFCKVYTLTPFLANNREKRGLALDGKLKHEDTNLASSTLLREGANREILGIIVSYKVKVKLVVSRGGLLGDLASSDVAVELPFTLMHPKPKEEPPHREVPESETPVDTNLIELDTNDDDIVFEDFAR
Nature of the test: ITC binding to βARR1 mutant P133A. The following applies: 25 °C. As for the experimental part:
as §1, §2

In test [3] the target is T3, βARR1 C251A (Rattus norvegicus, UniProt P29066, C251A).
T3 construct: βARR1 or βARR2 construct, with their C terminus truncated (at amino acid 393 or 394, respectively); GST (pGEX4T1) (N, cleaved yes); made in house; host or cells: E. coli BL21 (DE3) pLysS
T3 sequence (P29066 1-393 C251A): as the sequence (P29066 1-393 P133A) above, with A133P, C251A counted along it
Briefly: ITC binding to βARR1 mutant C251A. As for the experimental part:
as §1, §2

For test [4], the system named is M2R–Gi. Briefly: TRUPATH BRET2 Gα–Gβγ dissociation, M2R–Gi. It is filed as cell-based, human. The following applies: 50 μM, 15 min; ACh; βarr1/2 KO cells. The procedure:
TRUPATH assays[73] were performed in HEK293 βARR1/2-knockout cells transiently transfected using FuGENE4K with a total of 4 μg per 15 cm dish plasmid DNA, including pcDNA3.1 constructs encoding human GPCRs (β2AR, AT1R, M2R or NTSR1), Gα–RLuc8, Gβ3 and Gγ9–GFP2 at a 1:1:1:1 ratio. TRUPATH components were obtained from B. Roth via Addgene (1000000163). Twenty-four hours after transfection, cells were replated into poly-D-lysine-coated 96-well white, clear-bottom plates at 20,000–30,000 cells per well in phenol red-free DMEM supplemented with 2% FBS. BRET signals were acquired 48 h after transfection. On the day of the assay, cells were washed and incubated in HBSS containing 20 mM HEPES (pH 7.4). Modulators were applied at 50 μM for 15 min, followed by addition of Prolume Purple substrate (Nanolight Technologies). Cells were then stimulated with increasing concentrations of agonist (angiotensin II, neurotensin, isoproterenol or acetylcholine). BRET2 was recorded in kinetic mode for 30 min using a CLARIOstar Plus plate reader (480 nm/510 nm), and peak signals were used for quantification. ΔNet BRET ratios were calculated by subtracting the BRET ratio of the vehicle-treated control from each condition, agonist alone or agonist plus modulator. […]
Background: Bioluminescence resonance energy transfer reports proximity on the nanometre scale.

For test [5], the system named is D2R–Gi. Briefly: TRUPATH BRET2 Gα–Gβγ dissociation, D2R–Gi. It is filed as cell-based. Particulars: 50 μM; quinpirole; βarr1/2 KO cells.

Results on three compounds are retold here after PMC13489962, “Small-molecule modulation of β-arrestins” (Nature, 2026).

T1 sequence (P29066 1-393 L129G): as the sequence (P29066 1-393 P133A) above, with L129G, A133P counted along it

For orientation: Kd means the concentration at which binding is half-saturated. Read a low Kd as higher affinity. In the case of `C=C1C(=O)[C@]23[C@H](O)[C@H]1CC[C@H]2[C@@]12CO[C@]3(O)[C@@H](O)[C@@H]1C(C)(C)CC[C@@H]2O` [Cmpd-5, (1S,4aR,5S,6S,6aR,9S,11aS,11bS,14R)-1,5,6,14-tetrahydroxy−4,4-dimethyl-8-methylenedecahydro-1H-6,11b-(epoxymethano)-6a,9-methanocyclohepta[a]naphthalen-7(8H)-one], the figures for the Kd in test [1], in test [2] and in test [3] (25 °C) were 2 ± 0.7 µM, 1 ± 0.4 µM and 3 ± 1 µM, respectively. For the same compound, the “Kd fold over WT, βARR1 C251A” value in test [3] is given as 8.3 fold.

For `C=C1C(=O)C2=CC1CCC(=O)C1(C)CCC(OCC)C(C)(C)C1CC2O` (centres unmarked) [Cmpd-46, (Z)-3-ethoxy-6-hydroxy-4,4,13a-trimethyl-9-methylene-1,2,3,4,4a,5,6,9,10,11,12,13a-dodecahydro-7,10-(metheno)benzo[11]annulene-8,13-dione], in test [4], the “mean fractional decrease vs DMSO in maximal Gα–Gβγ dissociation, M2R” value is on record as −0.32. Further, in test [5], the “mean fractional decrease vs DMSO in maximal Gα–Gβγ dissociation, D2R” value is −0.18.

As for `C=C1C(=O)OC2CC3(C)OC3CCC(C)=CC(OC(C)=O)C12` (centres unmarked) [Cmpd-64, (Z)-4,10a-dimethyl-7-methylene-8-oxo-1a,2,3,6,6a,7,8,9a,10,10a decahydrooxireno[2’,3’:8,9]cyclodeca[1,2-b]furan-6-yl acetate], the “mean fractional decrease vs DMSO in maximal Gα–Gβγ dissociation, M2R” value in test [4] is reported as −0.38. For the same compound, the “mean fractional decrease vs DMSO in maximal Gα–Gβγ dissociation, D2R” value in test [5] is reported as −0.27.
